{"source": "ChEMBL document CHEMBL1201862", "about": "“PubChem BioAssay data set” (2004)", "key": {"[1]": {"system": "INS1", "assay": "beta cell apoptosis inhibitors, cytokine rescue, dose response, luminescence, retest (AID 449756);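 further: cell death triggered by IL-1 beta plus TNF-alpha plus IFN-gamma mixture; protective hits raise ATP signal compared with cytokine alone wells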", "assay_type": "functional, cell-based", "conditions": "Rattus norvegicus"}, "[2]": {"assay": "Shn3 3'UTR reporter inhibitors, dose response, cell-based, Clone20 osteoblasts, firefly luciferase, cherry-picked (AID 624132)", "assay_type": "functional"}, "[3]": {"assay": "control 3'UTR Renilla luciferase suppression, dose response, counter-screen for Shn3 inhibitor project, cell-based, Clone20-Shn3RL, cherry-picked (AID 624133)", "assay_type": "functional"}, "[4]": {"target": "Protein Wnt-3a (Mus musculus, UniProt P27467)", "sequence (P27467 whole entry)": "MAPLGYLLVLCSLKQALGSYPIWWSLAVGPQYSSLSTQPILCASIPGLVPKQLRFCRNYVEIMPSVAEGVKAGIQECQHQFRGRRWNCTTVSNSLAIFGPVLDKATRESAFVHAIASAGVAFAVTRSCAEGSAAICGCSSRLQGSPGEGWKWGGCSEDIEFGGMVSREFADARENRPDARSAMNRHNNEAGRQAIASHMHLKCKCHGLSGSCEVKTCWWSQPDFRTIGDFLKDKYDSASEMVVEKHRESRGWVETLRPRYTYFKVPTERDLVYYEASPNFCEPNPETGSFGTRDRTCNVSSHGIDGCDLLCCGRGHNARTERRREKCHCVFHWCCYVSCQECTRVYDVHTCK", "assay": "Wnt3a-driven reporter signaling inhibition, dose response, selectivity assay for Gli-SUFU antagonist project, Wnt-LIGHT cells, luminescence (AID 651570);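 further: Wnt-LIGHT reporter cells stimulated with conditioned medium from Wnt3a-producing cells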", "assay_type": "functional", "conditions": "read-out: IC50_Mean"}, "[5]": {"assay": "intracellular Trypanosoma cruzi inhibitors in host cells – cell-based, plate reader, cherry-pick samples, set 3, dose response (AID 651818);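 further: compounds incubated with infected cells for about four days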", "assay_type": "functional"}, "[6]": {"target": "Cytochrome P450 2C19 (Homo sapiens, UniProt P33261)", "sequence (P33261 whole entry)": "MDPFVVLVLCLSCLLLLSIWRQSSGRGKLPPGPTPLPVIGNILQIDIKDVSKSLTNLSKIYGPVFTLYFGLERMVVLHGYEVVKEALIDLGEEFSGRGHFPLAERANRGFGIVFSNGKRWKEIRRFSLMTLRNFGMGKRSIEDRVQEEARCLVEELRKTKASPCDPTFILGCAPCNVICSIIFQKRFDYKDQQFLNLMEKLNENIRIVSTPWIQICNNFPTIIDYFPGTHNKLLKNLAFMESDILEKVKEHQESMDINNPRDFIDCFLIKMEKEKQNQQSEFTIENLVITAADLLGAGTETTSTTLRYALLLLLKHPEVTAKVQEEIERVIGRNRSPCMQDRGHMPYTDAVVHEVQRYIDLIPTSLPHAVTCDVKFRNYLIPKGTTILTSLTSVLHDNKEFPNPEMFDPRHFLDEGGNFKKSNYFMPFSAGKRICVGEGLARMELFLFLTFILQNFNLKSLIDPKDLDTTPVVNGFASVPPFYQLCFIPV", "assay": "Cytochrome panel assay with activity outcomes. Panel member name: p450-cyp2c19 Compounds with AC50 equal or less than 10 uM are considered active", "assay_type": "functional"}, "[7]": {"target": "Cytochrome P450 3A4 (Homo sapiens, UniProt P08684)", "sequence (P08684 whole entry)": "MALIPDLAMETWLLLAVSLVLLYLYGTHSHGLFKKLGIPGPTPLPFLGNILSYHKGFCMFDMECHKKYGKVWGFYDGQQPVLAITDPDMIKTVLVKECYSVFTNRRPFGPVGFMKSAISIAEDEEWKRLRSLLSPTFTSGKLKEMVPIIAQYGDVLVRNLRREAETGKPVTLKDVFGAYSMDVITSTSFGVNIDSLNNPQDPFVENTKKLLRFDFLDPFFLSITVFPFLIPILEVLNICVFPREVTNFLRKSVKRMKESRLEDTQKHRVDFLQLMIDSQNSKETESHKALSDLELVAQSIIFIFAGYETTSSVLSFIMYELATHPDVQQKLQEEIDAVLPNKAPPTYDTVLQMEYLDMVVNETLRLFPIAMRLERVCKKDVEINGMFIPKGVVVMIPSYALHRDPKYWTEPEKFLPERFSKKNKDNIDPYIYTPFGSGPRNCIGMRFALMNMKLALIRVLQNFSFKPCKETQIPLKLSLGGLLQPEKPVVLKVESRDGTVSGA"}, "[8]": {"assay": "Luminescence Cell-Based Dose Retest to Confirm Inhibitors of Cancer Stem Cells. [Related pubchem assays (depositor defined):AID2717, AID2721]", "assay_type": "functional", "conditions": "Homo sapiens"}, "[9]": {"target": "T1, Replicative DNA helicase DnaB (Mycobacterium tuberculosis, UniProt P9WMR3)", "T1 sequence (P9WMR3 whole entry)": "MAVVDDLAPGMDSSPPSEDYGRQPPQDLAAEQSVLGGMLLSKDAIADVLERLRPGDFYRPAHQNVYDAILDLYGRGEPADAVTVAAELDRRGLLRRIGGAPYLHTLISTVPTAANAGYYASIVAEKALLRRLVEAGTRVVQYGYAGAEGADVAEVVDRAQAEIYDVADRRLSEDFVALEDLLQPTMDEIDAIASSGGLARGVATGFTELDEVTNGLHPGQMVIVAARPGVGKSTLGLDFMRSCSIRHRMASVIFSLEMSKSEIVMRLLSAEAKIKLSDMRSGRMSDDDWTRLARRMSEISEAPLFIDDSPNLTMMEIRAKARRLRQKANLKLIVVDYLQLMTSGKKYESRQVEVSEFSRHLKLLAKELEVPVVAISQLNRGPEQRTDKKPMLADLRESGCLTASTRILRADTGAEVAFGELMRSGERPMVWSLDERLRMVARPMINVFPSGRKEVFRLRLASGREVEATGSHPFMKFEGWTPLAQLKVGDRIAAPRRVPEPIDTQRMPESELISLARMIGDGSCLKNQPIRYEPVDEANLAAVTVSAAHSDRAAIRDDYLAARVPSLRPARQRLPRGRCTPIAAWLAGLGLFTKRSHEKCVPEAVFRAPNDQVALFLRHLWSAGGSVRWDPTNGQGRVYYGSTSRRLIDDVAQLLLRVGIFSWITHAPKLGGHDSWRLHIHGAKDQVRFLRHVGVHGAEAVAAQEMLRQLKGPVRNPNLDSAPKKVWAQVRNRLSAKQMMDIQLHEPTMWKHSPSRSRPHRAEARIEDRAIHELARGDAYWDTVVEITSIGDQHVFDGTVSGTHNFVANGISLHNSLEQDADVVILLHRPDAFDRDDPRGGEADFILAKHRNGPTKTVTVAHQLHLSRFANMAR", "assay": "DnaB intein splicing inhibitors, dose response, biochemical, cell-free fluorescence (AID 449749)", "assay_type": "functional"}, "[10]": {"target": "T2, Protein RecA (Mycobacterium tuberculosis, UniProt P9WHJ3)", "T2 sequence (P9WHJ3 whole entry)": "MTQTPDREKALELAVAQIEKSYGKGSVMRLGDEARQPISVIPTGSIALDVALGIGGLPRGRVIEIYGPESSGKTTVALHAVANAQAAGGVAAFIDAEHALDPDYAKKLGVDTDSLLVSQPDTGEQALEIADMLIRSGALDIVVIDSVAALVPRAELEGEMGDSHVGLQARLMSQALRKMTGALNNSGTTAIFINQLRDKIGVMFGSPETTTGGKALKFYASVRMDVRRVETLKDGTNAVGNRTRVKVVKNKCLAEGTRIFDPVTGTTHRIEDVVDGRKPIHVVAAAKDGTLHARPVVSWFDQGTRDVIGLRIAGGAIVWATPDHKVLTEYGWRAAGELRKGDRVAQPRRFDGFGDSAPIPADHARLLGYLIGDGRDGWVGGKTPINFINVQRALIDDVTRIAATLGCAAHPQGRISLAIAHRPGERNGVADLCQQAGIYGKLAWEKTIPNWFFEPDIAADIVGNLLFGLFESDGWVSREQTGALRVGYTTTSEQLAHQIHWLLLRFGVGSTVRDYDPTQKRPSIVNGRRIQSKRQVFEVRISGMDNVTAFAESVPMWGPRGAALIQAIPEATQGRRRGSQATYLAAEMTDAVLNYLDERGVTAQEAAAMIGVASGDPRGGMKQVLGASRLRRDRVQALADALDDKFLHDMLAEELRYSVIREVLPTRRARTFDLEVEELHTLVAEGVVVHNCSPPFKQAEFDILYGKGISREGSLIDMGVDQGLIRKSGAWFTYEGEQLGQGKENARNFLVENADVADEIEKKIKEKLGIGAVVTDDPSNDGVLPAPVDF", "assay": "Fluorescence Cell-Free Homogeneous Dose Retest to Identify Inhibitors of RecA-Intein Splicing Activity. [Related pubchem assays (depositor defined):AID2097, AID2223, AID489010, AID492950]", "assay_type": "functional"}, "[11]": {"target": "T3, Microphthalmia-associated transcription factor (Homo sapiens, UniProt O75030)", "T3 sequence (O75030 whole entry)": "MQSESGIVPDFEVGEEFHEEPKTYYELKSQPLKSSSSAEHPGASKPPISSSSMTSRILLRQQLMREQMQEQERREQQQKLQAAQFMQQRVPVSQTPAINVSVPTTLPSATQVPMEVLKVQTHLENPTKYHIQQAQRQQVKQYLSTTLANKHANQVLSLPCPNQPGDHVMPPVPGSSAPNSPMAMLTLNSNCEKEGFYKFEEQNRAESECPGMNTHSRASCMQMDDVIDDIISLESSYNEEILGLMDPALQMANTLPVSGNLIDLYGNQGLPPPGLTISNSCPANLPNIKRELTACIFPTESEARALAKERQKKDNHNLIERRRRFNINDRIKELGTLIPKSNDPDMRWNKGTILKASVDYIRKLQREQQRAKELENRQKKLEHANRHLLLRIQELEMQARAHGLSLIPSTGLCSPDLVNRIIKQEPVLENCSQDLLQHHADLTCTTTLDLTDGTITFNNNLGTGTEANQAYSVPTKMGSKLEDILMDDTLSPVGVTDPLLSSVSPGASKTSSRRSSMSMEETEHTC", "assay": "TRPM1 promoter luciferase signal decrease, dose response, MITF inhibitor project, cell-based, SK-MEL-5, cherry-picked, set 3 (AID 493073)", "assay_type": "functional"}, "[12]": {"assay": "Fluorescence-based cell-based high throughput dose response assay for inhibitors of the interaction of nucleotide-binding oligomerization domain containing 2 (NOD2) and the receptor-interacting serine-threonine kinase 2 (RIPK2).", "assay_type": "functional", "conditions": "Homo sapiens"}, "[13]": {"assay": "cells", "assay_type": "functional, cell-based"}, "[14]": {"assay": "HepG2 cell cytotoxicity, dose response, cytotoxicity control for Shn3 inhibitor project, CellTiter-Glo, cherry-picked (AID 624134)", "assay_type": "functional, cell-based"}, "[15]": {"assay": "cells", "assay_type": "functional, cell-based", "remark": "listed apart in the source"}, "[16]": {"target": "Photoreceptor-specific nuclear receptor (Homo sapiens, UniProt Q9Y5X4)", "sequence (Q9Y5X4 whole entry)": "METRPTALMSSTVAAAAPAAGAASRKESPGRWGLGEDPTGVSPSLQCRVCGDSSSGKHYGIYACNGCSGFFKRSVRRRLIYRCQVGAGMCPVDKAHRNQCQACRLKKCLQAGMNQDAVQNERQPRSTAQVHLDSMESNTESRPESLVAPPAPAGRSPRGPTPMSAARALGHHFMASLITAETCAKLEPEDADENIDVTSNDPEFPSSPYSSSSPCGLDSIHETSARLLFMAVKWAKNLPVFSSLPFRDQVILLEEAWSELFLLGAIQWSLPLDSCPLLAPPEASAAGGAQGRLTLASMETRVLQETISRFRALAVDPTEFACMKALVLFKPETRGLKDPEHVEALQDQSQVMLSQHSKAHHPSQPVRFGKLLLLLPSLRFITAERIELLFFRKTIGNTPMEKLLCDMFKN", "assay_type": "functional, cell-based"}, "[17]": {"target": "Cytochrome P450 2C9 (Homo sapiens, UniProt P11712)", "sequence (P11712 whole entry)": "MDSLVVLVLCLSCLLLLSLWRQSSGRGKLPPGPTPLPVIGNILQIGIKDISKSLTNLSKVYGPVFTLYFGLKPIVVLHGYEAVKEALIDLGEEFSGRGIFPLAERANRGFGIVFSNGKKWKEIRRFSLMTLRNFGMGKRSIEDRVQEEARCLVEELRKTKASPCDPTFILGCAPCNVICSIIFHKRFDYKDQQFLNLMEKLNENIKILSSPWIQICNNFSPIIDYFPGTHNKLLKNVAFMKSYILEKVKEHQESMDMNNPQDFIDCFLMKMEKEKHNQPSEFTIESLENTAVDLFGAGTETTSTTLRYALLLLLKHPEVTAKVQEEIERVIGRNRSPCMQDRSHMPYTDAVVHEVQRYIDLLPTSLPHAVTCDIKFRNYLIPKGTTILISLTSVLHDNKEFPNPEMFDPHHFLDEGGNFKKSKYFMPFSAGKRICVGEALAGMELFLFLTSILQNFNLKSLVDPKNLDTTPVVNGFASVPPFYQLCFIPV"}, "[18]": {"target": "Cytochrome P450 2D6 (Homo sapiens, UniProt P10635)", "sequence (P10635 whole entry)": "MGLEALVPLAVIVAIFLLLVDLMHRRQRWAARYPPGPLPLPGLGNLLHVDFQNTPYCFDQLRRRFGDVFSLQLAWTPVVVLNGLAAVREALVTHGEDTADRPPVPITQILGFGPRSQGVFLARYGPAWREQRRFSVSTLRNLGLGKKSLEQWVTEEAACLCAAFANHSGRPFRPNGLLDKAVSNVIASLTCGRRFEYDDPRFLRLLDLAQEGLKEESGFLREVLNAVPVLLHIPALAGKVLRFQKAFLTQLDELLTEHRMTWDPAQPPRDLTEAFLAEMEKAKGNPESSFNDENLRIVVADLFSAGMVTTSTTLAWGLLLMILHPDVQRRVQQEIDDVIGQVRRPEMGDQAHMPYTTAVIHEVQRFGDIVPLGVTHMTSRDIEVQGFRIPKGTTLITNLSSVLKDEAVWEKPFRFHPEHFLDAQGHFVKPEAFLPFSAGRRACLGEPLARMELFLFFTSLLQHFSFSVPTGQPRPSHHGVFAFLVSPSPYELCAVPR"}, "[19]": {"target": "Paired box protein Pax-8 (Homo sapiens, UniProt Q06710)", "sequence (Q06710 whole entry)": "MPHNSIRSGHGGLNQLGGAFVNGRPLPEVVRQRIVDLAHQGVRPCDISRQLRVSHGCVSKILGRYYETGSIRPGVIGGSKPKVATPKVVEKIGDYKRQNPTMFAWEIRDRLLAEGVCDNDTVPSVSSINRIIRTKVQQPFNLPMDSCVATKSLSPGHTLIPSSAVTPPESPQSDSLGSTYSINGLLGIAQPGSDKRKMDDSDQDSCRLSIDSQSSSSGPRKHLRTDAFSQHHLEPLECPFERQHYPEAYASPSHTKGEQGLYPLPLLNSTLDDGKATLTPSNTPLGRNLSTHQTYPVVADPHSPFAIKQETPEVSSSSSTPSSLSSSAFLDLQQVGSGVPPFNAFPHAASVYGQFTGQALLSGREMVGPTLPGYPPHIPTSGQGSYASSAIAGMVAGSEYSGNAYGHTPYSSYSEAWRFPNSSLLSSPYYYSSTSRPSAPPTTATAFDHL", "assay": "inhibitors of PAX8-driven TPO luciferase reporter, dose response, RMG-I cells, cherry-pick (AID 687027);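 further: luciferase reporter driven by Pax8 target thyroperoxidase promoter measured by SteadyGlo luminescence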", "assay_type": "functional, cell-based"}, "[20]": {"assay": "cytotoxicity in HEK-293T cells, dose response, cytotoxicity control for BCR NF-kB inhibitor project, luminescence, B-cell screen hits (AID 489021);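 further: cells exposed to compound for about 14 hours before viability readout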", "assay_type": "functional, cell-based"}}, "note": "Activity calls are given as the source filed them."}
{"smiles": "CC1Cc2cc(S(=O)(=O)N3CCC(C(=O)N4CCN(c5ccccc5F)CC4)CC3)ccc2N1C(=O)C1CC1", "note": "(stereo not drawn)", "values": [{"measurement": "AC50", "setting": "[1]", "result": "5.34 µM (active)"}, {"measurement": "AC50", "setting": "[2]", "result": "1.65 µM (active)"}, {"measurement": "AC50", "setting": "[3]", "result": "4.74 µM (active)"}, {"measurement": "IC50", "setting": "[4]", "result": "5.83 µM (active)"}]}
{"smiles": "C[C@H](CO)N1C[C@H](C)[C@H](CN(C)Cc2ccc(Cl)c(Cl)c2)Oc2ccc(NC(=O)Nc3ccc(C(F)(F)F)cc3)cc2C1=O", "values": [{"measurement": "AC50", "setting": "[5]", "result": "3.24 µM (active)"}]}
{"smiles": "CN1CCN(c2ncc3nc(-c4ccc(F)cc4)c(=O)n(C4CC4)c3n2)CC1", "values": [{"measurement": "AC50", "setting": "[6]; read-out: AC50", "result": "25.1 µM (inconclusive)"}, {"measurement": "AC50", "setting": "[7]", "result": "inconclusive"}]}
{"smiles": "C[C@@H]1CN([C@H](C)CO)C(=O)c2cccc(NC(=O)Nc3ccc(C(F)(F)F)cc3)c2O[C@@H]1CN(C)S(=O)(=O)c1ccc(Cl)cc1", "values": [{"measurement": "AC50", "setting": "[5]", "result": "3.52 µM (active)"}]}
{"smiles": "COc1ccccc1-c1cc(C(F)(F)F)nc(S(C)(=O)=O)n1", "values": [{"measurement": "AC50", "setting": "[8]", "result": "5.07 µM (active)"}, {"measurement": "AC50", "setting": "[9]", "result": "5.35 µM (active)"}, {"measurement": "EC50", "setting": "[10]", "result": "10 µM (active)"}, {"measurement": "AC50", "setting": "[11]", "result": "6.81 µM (active)"}, {"measurement": "IC50", "setting": "[12]", "result": "3.63 µM (active)"}, {"measurement": "EC50", "setting": "[13]", "result": "> 350 µM (not active)"}, {"measurement": "AC50", "setting": "[2]", "result": "4.06 µM (active)"}, {"measurement": "AC50", "setting": "[3]", "result": "12.4 µM (active)"}, {"measurement": "AC50", "setting": "[14]", "result": "37.6 µM (active)"}, {"measurement": "EC50", "setting": "[15]", "result": "> 350 µM (not active)"}]}
{"smiles": "O=C(C(=Cc1ccccc1)CN1CCCCC1)c1ccccc1", "values": [{"measurement": "AC50", "setting": "[2]", "result": "3.18 µM (active)"}, {"measurement": "AC50", "setting": "[3]", "result": "5.08 µM (active)"}, {"measurement": "AC50", "setting": "[14]", "result": "8.28 µM (active)"}, {"measurement": "IC50", "setting": "[16]", "result": "3.73 µM (active)"}]}
{"smiles": "COc1ccccc1CN1CC2(CCN(S(=O)(=O)c3ccccc3)CC2)C1", "values": [{"measurement": "AC50", "setting": "[6]", "result": "inconclusive"}, {"measurement": "AC50", "setting": "[17]", "result": "inconclusive"}, {"measurement": "AC50", "setting": "[18]", "result": "inconclusive"}]}
{"smiles": "CCN(CC(=O)Nc1c(F)cccc1F)C(=O)c1cc(S(=O)(=O)N(CC)CC)ccc1N1CCCCC1", "values": [{"measurement": "AC50", "setting": "[19]", "result": "3.02 µM (active)"}, {"measurement": "IC50", "setting": "[4]", "result": "11.4 µM (active)"}, {"measurement": "IC50", "setting": "[20]", "result": "> 80 µM (inactive)"}]}
